US6416783B1, “Aspartic and malic acid inhibition of ss-glucuronidase” (Wisconsin Alumni Research Foundation, priority 1999, dated 2002)
Where “and” joins values, the source holds several entries; their conditions need not be identical. Equal values may be shown once. Entries after “also recorded” stand apart in the source; their conditions may differ. Read-outs that look alike come from different tables or passages of the source. Each block holds one compound with its values, some of them ahead of it.

Target: T1, β-glucuronidase (Homo sapiens, UniProt P08236)
T1 construct: We used human breast milk collected and pooled from a newborn nursery as the β-glucuronidase source; from tissue
T1 sequence (P08236 23-651): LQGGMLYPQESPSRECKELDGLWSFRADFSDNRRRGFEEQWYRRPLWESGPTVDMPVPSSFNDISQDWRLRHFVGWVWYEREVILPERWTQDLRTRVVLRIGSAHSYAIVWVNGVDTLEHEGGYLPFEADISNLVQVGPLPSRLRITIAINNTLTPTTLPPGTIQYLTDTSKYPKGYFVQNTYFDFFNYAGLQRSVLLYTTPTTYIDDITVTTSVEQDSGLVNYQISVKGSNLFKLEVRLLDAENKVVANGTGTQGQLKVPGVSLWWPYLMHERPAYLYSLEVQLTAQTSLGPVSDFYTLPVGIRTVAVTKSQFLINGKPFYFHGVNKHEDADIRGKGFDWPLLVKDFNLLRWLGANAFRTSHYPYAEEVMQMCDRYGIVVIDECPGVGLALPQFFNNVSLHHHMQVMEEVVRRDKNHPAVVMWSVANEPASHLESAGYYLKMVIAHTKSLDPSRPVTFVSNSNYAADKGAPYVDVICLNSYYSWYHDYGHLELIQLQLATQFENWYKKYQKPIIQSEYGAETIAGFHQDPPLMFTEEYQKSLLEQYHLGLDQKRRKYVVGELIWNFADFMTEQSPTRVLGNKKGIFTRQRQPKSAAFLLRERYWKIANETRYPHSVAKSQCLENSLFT
Test: Standard Test: β-glucuronidase activity of human breast milk with MUG substrate (fluorescence)
Assay type: biochemical
Conditions: for β-glucuronidase activity, % (of control): 0.1, 1, 10 mM; for X (mean activity) / mean (X̄) activity: mean of 3; for X (mean activity) / β-glucuronidase activity (row unlabelled): in pmol/tube/h; for β-glucuronidase activity (row unlabelled) / Activity (pmole/tube/hr): single replicates; for concentration with significant β-glucuronidase inhibitory activity: tested 10 to 10,000 μM
Procedure: We first developed a standard assay procedure (the “Standard Test”). We used human breast milk collected and pooled from a newborn nursery as the β-glucuronidase source. The samples were stored at −20° C. The milk was thawed and diluted 10× with 0.2 M sodium acetate/glacial acetic acid (NaAC) buffer pH 4.5 just prior to being used. A 4.0 mM stock solution of 4-methylumbelliferyl β-D-glucuronide (MUG, Sigma M-9130 lot#75H3777) was prepared in 0.2 M NaAC buffer pH 4.5.
Triplicate test and blank tubes contained a reaction mixture consisting of 50 μL diluted breast milk and 50 μL of an inhibitor solution diluted with 0.2 M NaAC buffer pH 4.5. Controls were prepared that contained only 50 μL diluted breast milk and 50 μL 0.2 M NaAC buffer pH 4.5. The assay was started by adding 25 μl of the MUG (4.0 mM, 0.800 mM final concentration) to the test sample to start the reaction. The final volume of the reaction was 125 μL. Both blank and test samples were vortexed and incubated at 37° C. for 1 hour (or for shorter times if indicated).
The reaction was quenched in both the test and blank samples with 3.0 ml of glycine-carbonate (320 mM: 200 mM) buffer pH 10.0. The blank samples had 25 μl of the MUG (4.0 mM, 0.800 mM final) added to them and all tubes were vortexed.
The resulting fluorescence was read using a Perkin Elmer LS5-B fluorescence spectrophotometer (360 nm excitation, 445 nm emission, autorange scale). The amount of 4-methylumbelliferone (4-MU) released by the β-glucuronidase was calculated using a 4-MU quadratic standard curve and the Mathplot software. The velocity was calculated as pmoles of 4-MU formed per hour per ml undiluted breast milk.
We diluted pooled breast milk 20× with 0.2 M NaAC buffer pH 4.5. We diluted 2.2% w/v solution of Amicase (Sigma Cat. #A2427—a mixture of free amino acids with virtually no unhydrolyzed peptides, only minimal inorganic components are present, total nitrogen ˜12.8%, amino nitrogen ˜9.8%) with buffer 5×. We then incubated 50 μl milk with 50 μl buffer and Amicase. We then added 25 μl MUG to start the reaction. We then quenched with Na-carbonate buffer pH 10.0 and read fluorescence at 360 nm ex 445 nm em. Autorange scale. The mixture of amino acids was compared to controls and Nutramigen® as follows:
We then studied the effect of specific amino acid mixtures on β-glucuronidase activity. We diluted pooled breast milk 10× with 0.2 M NaAC buffer pH 4.5 and diluted 50×stock essential amino acid solution (Sigma Cat #M7020=L-arginine.HCl 6.32 g/L, L-cystine 1.2 g/L, L-histidine.HCl.H20 2.1 g/L, L-isoleucine 2.625 g/L, L-leucine 2.62 g/L, L-lyscine.HCl 3.625 g/L, L-methionine 0.755 g/L, L-phenylalanine 1.65 g/L, L-threonine 2.38 g/L, L-tryptophane 0.51 g/L, L-tyrosine 1.8 g/L, L-valine 2.34 g/L).
We also used a non-essential AA solution=Sigma Cat #M7145=L-alanine HCl 0.89 g/L, L-asparagine.H20 1.50 g/L, L-aspartic acid 1.33 g/L, L-glutamic acid 1.47 g/L, glycine 0.75 g/L, L-proline 1.15 g/L, L-serine 1.05 g/L.
We 5×diluted 100×stock essential AA solution. We incubated 50 μl diluted milk with 50 μl buffer (control), or the essential AA solution, or the non-essential AA solution, or Nutramigen® RTU, added 25 μl MUG to start the reaction, quenched with Na-carbonate buffer, and read fluorescence (360 nm excitation: 445 nm emission). The results are as follows:
We then analyzed inhibitory effect of each of the seven amino acids in the non-essential amino acid mixture. We diluted pooled breast milk 10× with 0.2 M NaAC buffer pH 4.5, and diluted Nutramigen® RTU (N) and Nutramigen® lipid-free supernatant (LFS) 5 fold with 0.2 M NaAC buffer pH 4.5.
We prepared stock solutions of each of the non-essential amino acids L-alanine (Ala), L-asparagine (Asn), L-aspartic acid (Asp), L-glutamic acid (Glu), glycine (Gly), L-proline (Pro), and L-Serine (Ser). All solutions were at pH 4.5. The final concentration of each amino acid in the assay was the same as when the amino acids were analyzed as a mixture. […]

[1] = Example 4, 0.1 mM, read-out: % (activity relative to control)
[2] = Example 4, 1 mM, read-out: % (activity relative to control)
[3] = Example 4, 10 mM, read-out: % (activity relative to control)
[4] = Example 5, Conc. 10 μm, read-out: % (activity relative to control)
[5] = Example 5, Conc. 100 μm, read-out: % (activity relative to control)
[6] = Example 5, Conc. 1,000 μm, read-out: % (activity relative to control)
[7] = Example 5, Conc. 10,000 μm, read-out: % (activity relative to control)

- remaining activity at 100 µM [1]: 98.4%
- remaining activity at 1000 µM [2]: 99.3%
- remaining activity at 10000 µM [3]: 100%
- β-glucuronidase activity, % (of control) (Example 4): 98-100%
- X (mean activity) (Example 4, 0.1 mM): 814.1
- X (mean activity) (Example 4, 1 mM): 821.6
- X (mean activity) (Example 4, 10 mM): 827.9
- β-glucuronidase activity (row unlabelled) (Example 4, 0.1 mM): 811.8 and 817.0 and 813.4
- β-glucuronidase activity (row unlabelled) (Example 4, 1 mM): 805.6 and 850.0 and 809.3
- β-glucuronidase activity (row unlabelled) (Example 4, 10 mM): 835.1 and 824.1 and 824.3
Compound: CC(=O)N[C@H]1C(O)O[C@H](CO)[C@H](O)[C@@H]1O (stereo partly drawn) [NAG, N-acetyl-D-galactosamine]

Compound: O=C(O)C[C@H](O)C(=O)O [L-malic acid]
- effect on β-glucuronidase activity (in words): significantly inhibit β-glucuronidase; also recorded: contributed to the inhibition of β-glucuronidase at similar concentrations to L-aspartic acid

- remaining activity at 61.4 µg/mL (Example 3, 61.4 μg/ml, read-out: % (activity relative to control)): 97.8%
- mean (X̄) activity (Example 3, 61.4 μg/ml): 659.2 pmole/tube/hr
Compound: NC(=O)C[C@H](N)C(=O)O [Asn, L-asparagine]
- Activity (pmole/tube/hr) (Example 3, 61.4 μg/ml): 663.2 pmole/tube/hr and 667.6 pmole/tube/hr and 646.7 pmole/tube/hr

- remaining activity at 53.2 µg/mL (Example 3, 53.2 μg/ml, read-out: % (activity relative to control)): 73.7%
- mean (X̄) activity (Example 3, 53.2 μg/ml): 496.5 pmole/tube/hr
- potency in β-glucuronidase inhibition relative to D-aspartic acid (Example 5): approximately 100 times
- remaining activity at 10 µM [4]: 97.4%
- remaining activity at 100 µM [5]: 89.3%
- remaining activity at 1000 µM [6]: 53%
- remaining activity at 10000 µM [7]: 8.4%
- mean (X̄) activity (Example 5, Conc. 10 μm): 693.9 pmole/tube/hr
- mean (X̄) activity (Example 5, Conc. 100 μm): 636.4 pmole/tube/hr
- mean (X̄) activity (Example 5, Conc. 1,000 μm): 377.5 pmole/tube/hr
- mean (X̄) activity (Example 5, Conc. 10,000 μm): 60.2 pmole/tube/hr
- concentration with significant β-glucuronidase inhibitory activity (Example 5): > 10 µM
- pH of maximum inhibition of β-glucuronidase (pH experiments): ~5
Compound: N[C@@H](CC(=O)O)C(=O)O [Asp, L-aspartic acid]
- effect on β-glucuronidase activity (in words): significantly inhibit β-glucuronidase; also recorded: significant β-glucuronidase inhibitory activity
- Activity (pmole/tube/hr) (Example 3, 53.2 μg/ml): 494.8 pmole/tube/hr and 500.8 pmole/tube/hr and 493.9 pmole/tube/hr
- Activity (pmole/tube/hr) (Example 5, Conc. 10 μm): 692.5 pmole/tube/hr and 705.8 pmole/tube/hr and 683.2 pmole/tube/hr
- Activity (pmole/tube/hr) (Example 5, Conc. 100 μm): 641.0 pmole/tube/hr and 640.1 pmole/tube/hr and 628.0 pmole/tube/hr
- Activity (pmole/tube/hr) (Example 5, Conc. 1,000 μm): 405.5 pmole/tube/hr and 378.0 pmole/tube/hr and 349.1 pmole/tube/hr
- Activity (pmole/tube/hr) (Example 5, Conc. 10,000 μm): 62.7 pmole/tube/hr and 59.2 pmole/tube/hr and 58.6 pmole/tube/hr

- remaining activity at 100 µM [1]: 99.3%
- remaining activity at 1000 µM [2]: 99.2%
- remaining activity at 10000 µM [3]: 110%
- β-glucuronidase activity, % (of control) (Example 4): 99-100%
- X (mean activity) (Example 4, 0.1 mM): 821.9
- X (mean activity) (Example 4, 1 mM): 820.5
- X (mean activity) (Example 4, 10 mM): 905.7
- β-glucuronidase activity (row unlabelled) (Example 4, 0.1 mM): 806.4 and 848.2 and 810.9
- β-glucuronidase activity (row unlabelled) (Example 4, 1 mM): 829.9 and 827.6 and 803.9
- β-glucuronidase activity (row unlabelled) (Example 4, 10 mM): 897.8 and 912.1 and 907.2
Compound: CC(=O)N[C@H]1[C@H]([C@H](O)[C@H](O)CO)OC(O)(C(=O)O)C[C@@H]1O (stereo partly drawn) [NAN, N-acetylneuraminic acid]

- remaining activity at 100 µM [1]: 99.1%
- remaining activity at 1000 µM [2]: 99.2%
- remaining activity at 10000 µM [3]: 99.2%
- β-glucuronidase activity, % (of control) (Example 4): 99%
- X (mean activity) (Example 4, 0.1 mM): 820.2
- X (mean activity) (Example 4, 1 mM): 812.2
- X (mean activity) (Example 4, 10 mM): 820.5
- β-glucuronidase activity (row unlabelled) (Example 4, 0.1 mM): 816.8 and 812.8 and 830.9
- β-glucuronidase activity (row unlabelled) (Example 4, 1 mM): 825.6 and 808.7 and 802.5
- β-glucuronidase activity (row unlabelled) (Example 4, 10 mM): 806.6 and 833.7 and 821.3
Compound: O=C[C@H](O)[C@@H](O)[C@@H](O)[C@H](O)CO [D-gal, D(+)galactose]

Compound: N[C@@H](CCC(=O)O)C(=O)O [Glu, L-glutamic acid]
- mean (X̄) activity (Example 3, 58.8 μg/ml): 660.0 pmole/tube/hr
- Activity (pmole/tube/hr) (Example 3, 58.8 μg/ml): 658.8 pmole/tube/hr and 657.5 pmole/tube/hr and 663.7 pmole/tube/hr
- remaining activity at 58.8 µg/mL (read-out: % (activity relative to control)): 97.9%

- remaining activity at 42.2 µg/mL (Example 3, 42.2 μg/ml, read-out: % (activity relative to control)): 99.3%
- mean (X̄) activity (Example 3, 42.2 μg/ml): 669.2 pmole/tube/hr
Compound: N[C@@H](CO)C(=O)O [Ser, L-Serine]
- Activity (pmole/tube/hr) (Example 3, 42.2 μg/ml): 677.7 pmole/tube/hr and 670.6 pmole/tube/hr and 659.2 pmole/tube/hr

- remaining activity at 10 µM [4]: 98.4%
- remaining activity at 100 µM [5]: 97.5%
- remaining activity at 1000 µM [6]: 98.1%
- remaining activity at 10000 µM [7]: 86.2%
- mean (X̄) activity (Example 5, Conc. 10 μm): 701.0 pmole/tube/hr
- mean (X̄) activity (Example 5, Conc. 100 μm): 694.8 pmole/tube/hr
- mean (X̄) activity (Example 5, Conc. 1,000 μm): 699.2 pmole/tube/hr
- mean (X̄) activity (Example 5, Conc. 10,000 μm): 614.7 pmole/tube/hr
- concentration with significant β-glucuronidase inhibitory activity (Example 5): 10,000 μM
Compound: N[C@H](CC(=O)O)C(=O)O [D-asp, D-aspartic acid]
- Activity (pmole/tube/hr) (Example 5, Conc. 10 μm): 706.2 pmole/tube/hr and 705.1 pmole/tube/hr and 691.7 pmole/tube/hr
- Activity (pmole/tube/hr) (Example 5, Conc. 100 μm): 692.3 pmole/tube/hr and 709.8 pmole/tube/hr and 682.1 pmole/tube/hr
- Activity (pmole/tube/hr) (Example 5, Conc. 1,000 μm): 704.2 pmole/tube/hr and 702.3 pmole/tube/hr and 691.2 pmole/tube/hr
- Activity (pmole/tube/hr) (Example 5, Conc. 10,000 μm): 626.2 pmole/tube/hr and 614.9 pmole/tube/hr and 602.9 pmole/tube/hr

- remaining activity at 35.6 µg/mL (Example 3, 35.6 μg/ml, read-out: % (activity relative to control)): 99.5%
- mean (X̄) activity (Example 3, 35.6 μg/ml): 671.0 pmole/tube/hr
Compound: C[C@H](N)C(=O)O [Ala, L-alanine]
- Activity (pmole/tube/hr) (Example 3, 35.6 μg/ml): 686.2 pmole/tube/hr and 670.9 pmole/tube/hr and 656.0 pmole/tube/hr
